For experiment [1], the system named is PMCs. The experiment is described as follows: Degranulation of PMCs (β-hexosaminidase release rate). The class given is cell-based, mouse. To be noted: for Degranulation of PMCs by the stimulant alone: 37° C. 10 minutes, DNP-HSA on IgE-sensitized PMCs, BzATP 10 uM; for Effect on IgE receptor stimulation or degranulation by C48/80: α,β-methyl mATP 10 uM, ADP 100 uM, UDP-Glucose 100 uM.

For experiment [2], the system named is PMCs derived from P2X4 receptor-deficient mice. The experiment is described as follows: Degranulation of PMCs derived from P2X4 receptor-deficient mice. The class given is cell-based, mouse. To be noted: DNP-HSA or C48/80 stimulation with 100 uM ATP. The protocol: The abdominal cavity of wild-type C57BL/6 mice (7- to 8-week-old, male; n=4) or P2X4 receptor-deficient mice (7- to 8-week-old, male; n=4) was washed with 4 mL of RPMI1640 medium to prepare peritoneal cells. The cells were cultured in RPMI1640 medium containing 10% FBS, penicillin (100 unit/ml), streptomycin (100 μg/ml), recombinant mouse IL-3 (10 ng/ml, manufactured by PeproTech, Inc.), and 10 ng/mL of SCF (manufactured by PeproTech, Inc.) for 14 days to be used for the experiment. 95% or more of the prepared PMCs were double positive for c-KIT and FcεRI (FACSCant II, manufactured by BD Biosciences).
Anti-DNP-IgE antibody (clone: SPE-7, manufactured by Sigma-Aldrich, Inc.) was added to a culture solution containing PMCs derived from wild-type C57BL/6 mice or P2X4 receptor-deficient mice so that the concentration reached 50 ng/ml, and the PMCs were sensitized overnight. The PMCs were washed with PBS(−) and suspended in Krebs Ringer-HEPES Buffer containing 0.1% BSA (NaCl 130 mM, KCl 4.7 mM, NaHCO3 4.0 mM, KH2P4 1.2 mM, Glucose 11.5 mM, HEPES 10 mM, and CaCl2—H2O 1.8 mM) so that the concentration reached 1×10^6 cell/mL. […] 50 mM carbonate buffer (pH 10.0, 100 uL) was added to stop the enzyme reaction of β-hexosaminidase, and absorbance was measured at 405/655 nm using an absorbance microplate reader Sunrise (manufactured by Tecan Trading AG). […]

The test system of experiment [3] is wild-type C57BL/6 mice. In words: Passive systemic anaphylaxis caused by C48/80 (rectal temperature). It is filed as in vivo, mouse. To be noted: 10 mg/kg intraperitoneally 15 minutes before C48/80 (50 μg i.v.); vs vehicle; listed as Compound B. As for the experimental part: Wild-type C57BL/6 mice (9-week-old, male; n=8) and P2X4 receptor-deficient mice (10-week-old, male; n=7) were intravenously administered with 100 μL of physiological saline containing 50 μg of C48/80 (manufactured by Sigma-Aldrich, Inc.). Thereafter, the rectal temperatures of the mice were measured with a digital thermometer (manufactured by Physitemp Instruments, LLC.) every 5 minutes for a period of 60 minutes.
Compound B, a P2X4 receptor antagonist, was used after being dissolved in physiological saline at a concentration of 10 mg/ml. In a passive systemic anaphylaxis test using the wild-type C57BL/6 mice of Example 1-1), 10 mg/kg of Compound B or a solvent thereof (vehicle) was intraperitoneally administered 15 minutes before administration of C48/80. […] From this, it was considered that the symptom of the pseudo-allergy can be reduced by the P2X4 receptor antagonist.

Where [4] appears, read: wild-type PMCs, C48/80 10 uM, Substance P 100 uM, PAMP-12 10 uM, vancomycin 1 mM.
[5] abbreviates: dose dependency, DNP-HSA 0, 1, 5, or 10 μg/mL.

“Also recorded” adds a separate entry of the source.

Regarding “Proadrenomedullin N-terminal 20 peptide [PAMP-12]”, the “Degranulation of PMCs by the stimulant alone” value in experiment [1] (setting [4]) is listed as “induced”.

As to BzATP, the “Degranulation of PMCs by the stimulant alone” value in experiment [1] (setting [4]) is recorded as “induced degranulation”.

With `CN[C@H](CC(C)C)C(=O)N[C@H]1C(=O)N[C@@H](CC(N)=O)C(=O)N[C@H]2C(=O)N[C@H]3C(=O)N[C@H](C(=O)N[C@H](C(=O)O)c4cc(O)cc(O)c4-c4cc3ccc4O)[C@H](O)c3ccc(c(Cl)c3)Oc3cc2cc(c3O[C@@H]2O[C@H](CO)[C@@H](O)[C@H](O)[C@H]2O[C@H]2C[C@](C)(N)[C@H](O)[C@H](C)O2)Oc2ccc(cc2Cl)[C@H]1O` [vancomycin], in experiment [1] (setting [4]), the “Degranulation of PMCs by the stimulant alone” value is given as “induced”.

In the case of `Nc1ncnc2c1ncn2[C@@H]1O[C@H](COP(=O)(O)OP(=O)(O)OP(=O)(O)O)[C@@H](O)[C@H]1O` [ATP], the “Effect of ATP on degranulation of PMCs by MrgprB2 stimulation with C48/80” value in experiment [1] (100 uM ATP, C48/80 10 uM, wild-type PMCs) is “significantly promoted”. The “Effect of ATP on degranulation of PMCs by IgE receptor stimulation (DNP-HSA)” value in experiment [1] (100 uM ATP, IgE (SPE-7)-sensitized wild-type PMCs) was “significantly promoted”. Also, in experiment [1] (C48/80 0, 1, 10, or 100 uM), the “Effect of ATP on dose dependency of degranulation by MrgprB2 stimulation with C48/80” value is listed as “enhanced the maximum response; also recorded: significantly increased the degree of degranulation”. For the same compound, the “Effect of ATP on degranulation of PMCs by Substance P, PAMP-12 and vancomycin” value in experiment [1] (Substance P 100 uM, PAMP-12 10 uM, vancomycin 1 mM) is “promoted; also recorded: enhanced”. In experiment [1] (setting [5]), the “Effect of ATP on degranulation by IgE receptor stimulation, DNP-HSA at a high concentration” value is on record as “not observed” and the “Effect of ATP on degranulation by IgE receptor stimulation, DNP-HSA at a low concentration” value is recorded as “promoted degranulation”. For the same compound, in experiment [2], the “Effect of promoting degranulation of ATP in P2X4 receptor-deficient PMCs” value is reported as “not observed”.

As to `Nc1ncnc2c1ncn2[C@@H]1O[C@H](COP(=O)(O)CP(=O)(O)OP(=O)(O)O)[C@@H](O)[C@H]1O` [α,β-methyl mATP], the “Effect on IgE receptor stimulation or degranulation by C48/80” value in experiment [1] is “did not affect”.

Consider `O=C1CC(=O)N(c2ccc(NC(=O)c3ccccc3I)cc2)c2ccc3ccccc3c2N1` [Compound B48, 5-[4-(2-iodobenzoylamino)phenyl]-1H-naphtho[1,2-b][1,4]diazepine-2,4(3H,5H)-dione], for which, in experiment [1] (Compound at 10 uM before the degranulation reaction, C48/80 10 uM with or without 100 uM ATP, vs vehicle, listed as Compound B), the “Suppression of the promotion of degranulation of PMCs by ATP” value is given as “significantly suppressed”. Also, the “Suppression of the decrease in rectal temperature by C48/80” value in experiment [3] is recorded as “significantly suppressed”.

Consider Substance P, for which, in experiment [1] (setting [4]), the “Degranulation of PMCs by the stimulant alone” value is listed as “induced”.

`Nc1ncnc2c1ncn2[C@@H]1O[C@H](COP(=O)(O)OP(=O)(O)O)[C@@H](O)[C@H]1O` [ADP]: in experiment [1], the “Effect on IgE receptor stimulation or degranulation by C48/80” value was “did not affect”.

The values above are taken from US20260000678A1, “PHARMACEUTICAL COMPOSITION FOR PREVENTING, SUPPRESSING, OR TREATING SYMPTOM ASSOCIATED WITH PSEUDO-ALLERGIC REACTION” (Takasaki University of Health and Welfare, priority 2022, published 2026).
